Results taken from publication PMC7457178 (Biomolecules & Therapeutics, 2020).

How the values were obtained:
[1] = system: neonatal rat cardiomyocytes; experiment: Angiotensin II-induced cellular hypertrophy in neonatal cardiomyocytes; conditions: 0.1 µM angiotensin II, 4 days
HDAC5 phosphorylation = experiment: Angiotensin II-induced HDAC5 phosphorylation in neonatal cardiomyocytes; conditions: 0.1 µM angiotensin II
GRK2 = target: T1, GRK2 (Homo sapiens, UniProt P25098); experiment: Inhibitory activity against GRK2; type: biochemical; conditions: read-out: Inhibition of GRK2
T1 sequence (P25098 1-689): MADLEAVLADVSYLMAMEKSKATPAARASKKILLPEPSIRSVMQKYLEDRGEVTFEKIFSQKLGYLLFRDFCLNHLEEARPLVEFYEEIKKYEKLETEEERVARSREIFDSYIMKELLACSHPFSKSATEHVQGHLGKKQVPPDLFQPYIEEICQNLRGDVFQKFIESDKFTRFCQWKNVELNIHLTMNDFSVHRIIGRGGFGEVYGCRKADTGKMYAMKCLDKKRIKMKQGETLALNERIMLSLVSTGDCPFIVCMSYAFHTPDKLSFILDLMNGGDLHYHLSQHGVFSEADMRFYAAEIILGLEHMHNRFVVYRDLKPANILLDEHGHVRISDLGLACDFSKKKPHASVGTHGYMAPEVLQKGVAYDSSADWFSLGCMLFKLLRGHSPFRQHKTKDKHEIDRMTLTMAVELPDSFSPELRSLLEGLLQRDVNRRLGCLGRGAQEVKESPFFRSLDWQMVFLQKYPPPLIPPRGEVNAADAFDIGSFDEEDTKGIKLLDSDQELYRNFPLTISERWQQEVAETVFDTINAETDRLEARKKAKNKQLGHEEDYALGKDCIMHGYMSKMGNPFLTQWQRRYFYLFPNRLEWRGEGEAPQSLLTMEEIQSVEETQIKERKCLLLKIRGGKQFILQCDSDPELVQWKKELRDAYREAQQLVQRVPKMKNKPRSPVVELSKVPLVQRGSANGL

S.D. rats = experiment: Post-MI chronic heart failure model; type: in vivo, rat; conditions: for Fractional shortening / Left ventricular ejection fraction: 12 weeks after coronary artery ligation
[2] = Pharmacokinetic study in rats; type: in vivo; conditions: rat
Cytotoxicity, NIH3T3 = type: cell-based; conditions: mouse, NIH3T3 cells
Cytotoxicity, L929 = type: cell-based; conditions: mouse, L929 cells
Cytotoxicity, VERO = type: cell-based; conditions: African green monkey, VERO cells
Cytotoxicity, HFL-1 = type: cell-based; conditions: human, HFL-1 cells
hERG channel = hERG channel (Homo sapiens, UniProt Q12809); experiment: Patch clamp for the hERG channel; type: cell-based
in vivo = conditions: Sprague-Dawley (S.D.), rat, iv, 10 mg/kg, Kp (ratio of tissue to plasma concentration), 10 mg/kg i.v.
C57BL/6 mice = experiment: Transverse aortic constriction; conditions: 30 mg/kg daily oral, 14 days
[3] = 30 mg/kg/day p.o., 12 weeks after MI
[4] = Sprague-Dawley (S.D.), plasma, iv, 5 mg/kg
[5] = Sprague-Dawley (S.D.), plasma, po, 300 mg/kg

Chain of hERG channel (Q12809 whole entry): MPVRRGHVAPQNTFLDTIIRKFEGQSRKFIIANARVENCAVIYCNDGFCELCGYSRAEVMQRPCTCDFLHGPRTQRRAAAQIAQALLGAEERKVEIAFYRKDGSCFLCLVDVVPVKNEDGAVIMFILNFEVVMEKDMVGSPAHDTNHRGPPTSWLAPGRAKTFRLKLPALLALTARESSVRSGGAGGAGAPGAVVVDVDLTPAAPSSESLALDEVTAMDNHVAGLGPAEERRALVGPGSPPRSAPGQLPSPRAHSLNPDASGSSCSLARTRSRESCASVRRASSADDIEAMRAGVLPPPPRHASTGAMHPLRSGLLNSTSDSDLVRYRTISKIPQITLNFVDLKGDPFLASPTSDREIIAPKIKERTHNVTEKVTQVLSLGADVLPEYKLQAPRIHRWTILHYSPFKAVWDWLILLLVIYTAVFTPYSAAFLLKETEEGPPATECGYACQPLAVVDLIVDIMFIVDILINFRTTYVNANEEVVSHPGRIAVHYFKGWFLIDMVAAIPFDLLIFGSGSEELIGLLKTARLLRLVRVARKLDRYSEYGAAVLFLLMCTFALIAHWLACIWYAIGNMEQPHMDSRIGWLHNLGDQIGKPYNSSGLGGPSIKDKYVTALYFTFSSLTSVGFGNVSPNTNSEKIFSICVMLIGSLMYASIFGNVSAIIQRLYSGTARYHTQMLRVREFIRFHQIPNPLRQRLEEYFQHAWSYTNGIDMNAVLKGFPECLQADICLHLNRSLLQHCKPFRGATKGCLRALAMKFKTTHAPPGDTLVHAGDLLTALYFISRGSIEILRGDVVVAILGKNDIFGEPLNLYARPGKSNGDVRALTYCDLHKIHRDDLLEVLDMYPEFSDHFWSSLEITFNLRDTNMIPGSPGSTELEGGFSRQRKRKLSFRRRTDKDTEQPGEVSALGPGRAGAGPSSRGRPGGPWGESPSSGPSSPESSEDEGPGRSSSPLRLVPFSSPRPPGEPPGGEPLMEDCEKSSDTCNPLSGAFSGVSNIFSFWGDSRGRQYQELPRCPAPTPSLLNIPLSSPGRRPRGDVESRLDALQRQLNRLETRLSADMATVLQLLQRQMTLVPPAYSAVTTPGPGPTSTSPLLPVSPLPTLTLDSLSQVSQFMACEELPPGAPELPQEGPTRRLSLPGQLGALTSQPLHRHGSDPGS

CC(C)c1ccc2oc3nc(N)c(C(=O)O)cc3c(=O)c2c1 [amlexanox, reference compound]
Effect on angiotensin II-induced cellular hypertrophy (cell surface area) [1]: concentration-dependently inhibited | Effect on angiotensin II-induced phosphorylation of HDAC5 (HDAC5 phosphorylation): effectively downregulated

NCCCNCCCCNCCCNc1cc2nc(-c3ccccc3Cl)[nH]c(=O)c2cc1F [KR-39038, 7-((3-((4-((3-aminopropyl)amino)butyl)amino)propyl)amino)-2-(2-chlorophenyl)-6-fluoroquinazolin-4(3H)-one]
inhibition at 10 µM (GRK2): 5.9% | Survival rate (S.D. rats; 10 mg/kg/day p.o., 12 weeks after MI): 80% | Fractional shortening (S.D. rats; 10 mg/kg/day p.o.): 23.4 ± 1.6% | Left ventricular ejection fraction (S.D. rats; 10 mg/kg/day p.o.): 44.3 ± 2.6% | Interstitial fibrosis (S.D. rats; [3]): 16.3 ± 1.6% | Myocyte cross-sectional area (S.D. rats; [3]): 420.1 ± 21.2 µm^2 | Survival rate (S.D. rats; [3]): 73% | Fractional shortening (S.D. rats; 30 mg/kg/day p.o.): 22.6 ± 1.3% | Left ventricular ejection fraction (S.D. rats; 30 mg/kg/day p.o.): 43.4 ± 2.3% | AUC(0-inf) [2, 4]: 3400 ± 1000 ng·h/mL | Vd [2, 4]: 1.2 ± 0.2 L/kg | clearance [2, 4]: 26.7 mL/min/kg | half-life [2, 4]: 42 ± 2.4 min | AUC(0-inf) ([2]; Sprague-Dawley (S.D.), plasma, iv, 10 mg/kg): 3400 ± 1000 ng·h/mL | AUC(0-inf) [2, 5]: 8900 ± 5000 ng·h/mL | Cmax [2, 5]: 5200 ± 2800 ng/mL | Tmax [2, 5]: 42 ± 12 min | half-life [2, 5]: 138 ± 174 min | F (oral bioavailability) ([2]; 300 mg/kg p.o., 300 mg/kg): 4.3 ± 2.4% | EC50 (Cytotoxicity, NIH3T3): 61.1 µM | EC50 (Cytotoxicity, L929): 89.9 µM | EC50 (Cytotoxicity, VERO): > 100 µM | EC50 (Cytotoxicity, HFL-1): > 100 µM | IC50 (hERG channel): > 50 µM | Kp at 4 h (in vivo; brain): 11.3 | Kp at 4 h (in vivo; heart): 16.9 | Kp at 4 h (in vivo; kidney): 26.3 | Kp at 4 h (in vivo; liver): 10.4 | Kp at 4 h (in vivo; lung): 2.7 | Kp at 4 h (in vivo; plasma): 1 | Effect on angiotensin II-induced cellular hypertrophy (cell surface area) [1]: concentration-dependently inhibited | Reduction in the left ventricular weight (C57BL/6 mice): 43% | Effect on angiotensin II-induced phosphorylation of HDAC5 (HDAC5 phosphorylation): effectively downregulated

C[C@H](CS)C(=O)N1CCC[C@H]1C(=O)O [captopril, reference compound]
Survival rate (S.D. rats; [3]): 67%
